Experimental data as given in PMC5508536 (Bioorganic & medicinal chemistry letters, 2017).
Blank lines part the entries; values can stand above or below the compound they belong to.

Key:
[1] = target: T1, rat M5 (Rattus norvegicus, UniProt P08911); assay: rat M5 intracellular calcium mobilization assay; assay type: cell-based
T1 sequence (P08911 1-531): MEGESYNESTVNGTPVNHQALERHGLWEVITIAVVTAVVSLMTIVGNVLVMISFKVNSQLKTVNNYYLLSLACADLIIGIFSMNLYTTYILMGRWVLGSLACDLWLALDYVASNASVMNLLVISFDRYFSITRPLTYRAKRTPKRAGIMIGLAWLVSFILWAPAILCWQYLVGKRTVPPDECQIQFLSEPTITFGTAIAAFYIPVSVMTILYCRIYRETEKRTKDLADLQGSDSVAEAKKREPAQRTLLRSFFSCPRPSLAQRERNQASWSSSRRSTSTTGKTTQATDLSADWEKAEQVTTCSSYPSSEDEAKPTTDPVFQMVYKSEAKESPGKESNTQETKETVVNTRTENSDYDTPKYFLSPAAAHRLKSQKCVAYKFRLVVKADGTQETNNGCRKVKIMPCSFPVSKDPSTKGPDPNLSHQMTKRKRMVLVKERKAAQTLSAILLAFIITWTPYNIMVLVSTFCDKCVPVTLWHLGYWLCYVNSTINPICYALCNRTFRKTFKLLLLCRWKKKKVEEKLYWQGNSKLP

[2] = cited from earlier work
[3] = rat; cited from earlier work

rat M5 potency relative to hM5 [1]: ≤ 2 fold
SMILES: O=C(c1ccc(F)c(F)c1)N1CCN2C(=O)c3ccccc3[C@@]12c1ccc(N2CCCC(F)(F)C2)cc1 [4d]

rat M5 potency relative to hM5 [1]: ≤ 2 fold
SMILES: O=C(c1ccc(F)c(F)c1)N1CCN2C(=O)c3ccccc3[C@@]12c1ccc(N2CCC(F)(F)CC2)cc1 [4f]

SMILES: O=C(c1ccc(F)c(F)c1)N1CCN2C(=O)c3ccccc3[C@@]12c1ccc(Cl)cc1 [compound 1]
elimination half-life t1/2 ([2]; rat): 80 h

SMILES: COc1ccc([C@@]23c4ccccc4C(=O)N2CCN3C(=O)c2cc(F)c(F)c(F)c2)cc1C [compound 2]
CLp ([2]; rat PK): > 70 mL/min/kg | CNS penetration [3]: limited CNS penetration
